# Assay results as given in ChEMBL document CHEMBL3885881, “DrugMatrix”.
# Species on record: Rattus norvegicus
# Test: DrugMatrix - Regimen: Daily Repeat
# Assay type: toxicity, organism-based, Sprague-Dawley
# Parameters: regimen Daily Repeat, gender Male, age 6-8 weeks
# Details: in vivo; for BASOPHIL / EOSINOPHIL / ERYTHROCYTE COUNT / HEMATOCRIT / HEMOGLOBIN / LEUKOCYTE COUNT / LYMPHOCYTE / MEAN CORPUSCULAR HEMOGLOBIN / MEAN CORPUSCULAR HEMOGLOBIN CONCENTRATION / MEAN CORPUSCULAR VOLUME / MONOCYTE / NEUTROPHIL / PLATELET COUNT / ABSOLUTE BASOPHIL / ABSOLUTE EOSINOPHIL / ABSOLUTE LYMPHOCYTE / ABSOLUTE MONOCYTE / ABSOLUTE SEGMENTED NEUTROPHIL / NUCLEATED RED BLOOD CELLS: tissue Blood; for ALANINE AMINOTRANSFERASE / ALBUMIN / ALKALINE PHOSPHATASE / ASPARTATE AMINOTRANSFERASE / BLOOD UREA NITROGEN / CARBON DIOXIDE / CHLORIDE / CHOLESTEROL / CREATINE PHOSPHOKINASE / CREATININE / GLUCOSE / LACTATE DEHYDROGENASE / LIPASE / PHOSPHORUS / POTASSIUM / SODIUM / TOTAL BILIRUBIN / TOTAL PROTEIN / URIC ACID: tissue Plasma
# [1] = po, 38 mg/kg, 72 h, route oral GAVAGE, dose level Low, time 3 day, vehicle 100 % WATER
# [2] = po, 38 mg/kg, 120 h, route oral GAVAGE, dose level Low, time 5 day, vehicle 100 % WATER
# [3] = sc, 0 mg/kg, 120 h, route subcutaneous, dose level Control, time 5 day, vehicle 100 % SALINE
# [4] = sc, 10 mg/kg, 120 h, route subcutaneous, dose level Low, time 5 day, vehicle 100 % SALINE
# [5] = sc, 50 mg/kg, 120 h, route subcutaneous, dose level High, time 5 day, vehicle 100 % SALINE
smiles,measurement,setting,value
O=C(O)C1CC1 [CYCLOPROPANE CARBOXYLIC ACID],BASOPHIL,[1],0%
same,EOSINOPHIL,[1],0.67%
same,ERYTHROCYTE COUNT,[1],7.06 x10E6/uL
same,HEMATOCRIT,[1],43.67%
same,HEMOGLOBIN,[1],14.6 G/DL
same,LEUKOCYTE COUNT,[1],8.63 x10E3/uL
same,LYMPHOCYTE,[1],83.67%
same,MEAN CORPUSCULAR HEMOGLOBIN,[1],20.67 pg
same,MEAN CORPUSCULAR HEMOGLOBIN CONCENTRATION,[1],33.47 G/DL
same,MEAN CORPUSCULAR VOLUME,[1],61.77 fL
same,MONOCYTE,[1],2.33%
same,NEUTROPHIL,[1],13.33%
same,PLATELET COUNT,[1],1012 x10E3/uL
same,ALANINE AMINOTRANSFERASE,[1],44.67 u/L
same,ALBUMIN,[1],4.37 G/DL
same,ALKALINE PHOSPHATASE,[1],346.67 u/L
same,ASPARTATE AMINOTRANSFERASE,[1],72.33 u/L
same,BLOOD UREA NITROGEN,[1],15 mg/dL
same,CARBON DIOXIDE,[1],23 mmol/L
same,CHLORIDE,[1],103.67 MEQ/L
same,CHOLESTEROL,[1],65.67 mg/dL
same,CREATINE PHOSPHOKINASE,[1],241.33 u/L
same,CREATININE,[1],0.3 mg/dL
same,GLUCOSE,[1],151 mg/dL
same,LACTATE DEHYDROGENASE,[1],152.33 u/L
same,LIPASE,[1],9 u/L
same,PHOSPHORUS,[1],9.83 mg/dL
same,POTASSIUM,[1],5.7 MEQ/L
same,SODIUM,[1],145.67 MEQ/L
same,TOTAL BILIRUBIN,[1],0.1 mg/dL
same,TOTAL PROTEIN,[1],6.03 G/DL
same,URIC ACID,[1],1.1 mg/dL
same,BASOPHIL,[2],0.33%
same,EOSINOPHIL,[2],1%
same,ERYTHROCYTE COUNT,[2],7.12 x10E6/uL
same,HEMATOCRIT,[2],44.63%
same,HEMOGLOBIN,[2],14.4 G/DL
same,LEUKOCYTE COUNT,[2],10.9 x10E3/uL
same,LYMPHOCYTE,[2],85%
same,MEAN CORPUSCULAR HEMOGLOBIN,[2],20.2 pg
same,MEAN CORPUSCULAR HEMOGLOBIN CONCENTRATION,[2],32.27 G/DL
same,MEAN CORPUSCULAR VOLUME,[2],62.67 fL
same,MONOCYTE,[2],2.33%
same,NEUTROPHIL,[2],12.33%
same,PLATELET COUNT,[2],970.67 x10E3/uL
same,ALANINE AMINOTRANSFERASE,[2],47.33 u/L
same,ALBUMIN,[2],4.6 G/DL
same,ALKALINE PHOSPHATASE,[2],373.67 u/L
same,ASPARTATE AMINOTRANSFERASE,[2],86 u/L
same,BLOOD UREA NITROGEN,[2],17.33 mg/dL
same,CARBON DIOXIDE,[2],20.67 mmol/L
same,CHLORIDE,[2],99.33 MEQ/L
same,CHOLESTEROL,[2],73.67 mg/dL
same,CREATINE PHOSPHOKINASE,[2],418 u/L
same,CREATININE,[2],0.3 mg/dL
same,GLUCOSE,[2],133.33 mg/dL
same,LACTATE DEHYDROGENASE,[2],454 u/L
same,LIPASE,[2],9 u/L
same,PHOSPHORUS,[2],10.13 mg/dL
same,POTASSIUM,[2],5.37 MEQ/L
same,SODIUM,[2],143.33 MEQ/L
same,TOTAL BILIRUBIN,[2],0.1 mg/dL
same,TOTAL PROTEIN,[2],6.53 G/DL
same,URIC ACID,[2],1.03 mg/dL
CC(N)Cc1c[nH]c2ccc(OCc3cccs3)cc12 (stereo not drawn) [BW-723C86],ABSOLUTE BASOPHIL,[3],0 CELLS/uL
same,ABSOLUTE EOSINOPHIL,[3],0 CELLS/uL
same,ABSOLUTE LYMPHOCYTE,[3],5956.67 CELLS/uL
same,ABSOLUTE MONOCYTE,[3],0 CELLS/uL
same,ABSOLUTE SEGMENTED NEUTROPHIL,[3],510 CELLS/uL
same,BASOPHIL,[3],0%
same,EOSINOPHIL,[3],0%
same,ERYTHROCYTE COUNT,[3],5.39 x10E6/uL
same,HEMATOCRIT,[3],32.5%
same,HEMOGLOBIN,[3],12.47 G/DL
same,LEUKOCYTE COUNT,[3],6.47 x10E3/uL
same,LYMPHOCYTE,[3],92%
same,MEAN CORPUSCULAR HEMOGLOBIN,[3],23.13 pg
same,MEAN CORPUSCULAR HEMOGLOBIN CONCENTRATION,[3],38.37 G/DL
same,MEAN CORPUSCULAR VOLUME,[3],60.3 fL
same,MONOCYTE,[3],0%
same,NEUTROPHIL,[3],8%
same,NUCLEATED RED BLOOD CELLS,[3],0.33 /100WBC
same,PLATELET COUNT,[3],888 x10E3/uL
same,ALANINE AMINOTRANSFERASE,[3],43.67 u/L
same,ALBUMIN,[3],4.37 G/DL
same,ALKALINE PHOSPHATASE,[3],356 u/L
same,ASPARTATE AMINOTRANSFERASE,[3],74 u/L
same,BLOOD UREA NITROGEN,[3],11 mg/dL
same,CARBON DIOXIDE,[3],32.33 mmol/L
same,CHLORIDE,[3],103.33 MEQ/L
same,CHOLESTEROL,[3],70.67 mg/dL
same,CREATINE PHOSPHOKINASE,[3],195.33 u/L
same,CREATININE,[3],0.16 mg/dL
same,GLUCOSE,[3],161.67 mg/dL
same,LACTATE DEHYDROGENASE,[3],84 u/L
same,LIPASE,[3],9 u/L
same,PHOSPHORUS,[3],12.57 mg/dL
same,POTASSIUM,[3],6.87 MEQ/L
same,SODIUM,[3],147.6 MEQ/L
same,TOTAL BILIRUBIN,[3],0.13 mg/dL
same,TOTAL PROTEIN,[3],6.27 G/DL
same,URIC ACID,[3],1.67 mg/dL
same,ABSOLUTE BASOPHIL,[4],0 CELLS/uL
same,ABSOLUTE EOSINOPHIL,[4],0 CELLS/uL
same,ABSOLUTE LYMPHOCYTE,[4],5627 CELLS/uL
same,ABSOLUTE MONOCYTE,[4],73.33 CELLS/uL
same,ABSOLUTE SEGMENTED NEUTROPHIL,[4],866.33 CELLS/uL
same,BASOPHIL,[4],0%
same,EOSINOPHIL,[4],0%
same,ERYTHROCYTE COUNT,[4],5.18 x10E6/uL
same,HEMATOCRIT,[4],31.03%
same,HEMOGLOBIN,[4],12 G/DL
same,LEUKOCYTE COUNT,[4],6.57 x10E3/uL
same,LYMPHOCYTE,[4],85.33%
same,MEAN CORPUSCULAR HEMOGLOBIN,[4],23.2 pg
same,MEAN CORPUSCULAR HEMOGLOBIN CONCENTRATION,[4],38.67 G/DL
same,MEAN CORPUSCULAR VOLUME,[4],60 fL
same,MONOCYTE,[4],1%
same,NEUTROPHIL,[4],13.67%
same,NUCLEATED RED BLOOD CELLS,[4],0.33 /100WBC
same,PLATELET COUNT,[4],1156.33 x10E3/uL
same,ALANINE AMINOTRANSFERASE,[4],53.33 u/L
same,ALBUMIN,[4],4.03 G/DL
same,ALKALINE PHOSPHATASE,[4],406.67 u/L
same,ASPARTATE AMINOTRANSFERASE,[4],85.67 u/L
same,BLOOD UREA NITROGEN,[4],14.67 mg/dL
same,CARBON DIOXIDE,[4],33.33 mmol/L
same,CHLORIDE,[4],103.33 MEQ/L
same,CHOLESTEROL,[4],90.33 mg/dL
same,CREATINE PHOSPHOKINASE,[4],200.33 u/L
same,CREATININE,[4],0.18 mg/dL
same,GLUCOSE,[4],150.33 mg/dL
same,LACTATE DEHYDROGENASE,[4],93 u/L
same,LIPASE,[4],8 u/L
same,PHOSPHORUS,[4],13.1 mg/dL
same,POTASSIUM,[4],7.02 MEQ/L
same,SODIUM,[4],148.43 MEQ/L
same,TOTAL BILIRUBIN,[4],0.1 mg/dL
same,TOTAL PROTEIN,[4],6.43 G/DL
same,URIC ACID,[4],1.67 mg/dL
same,ABSOLUTE BASOPHIL,[5],0 CELLS/uL
same,ABSOLUTE EOSINOPHIL,[5],0 CELLS/uL
same,ABSOLUTE LYMPHOCYTE,[5],7706.33 CELLS/uL
same,ABSOLUTE MONOCYTE,[5],71.33 CELLS/uL
same,ABSOLUTE SEGMENTED NEUTROPHIL,[5],3055.67 CELLS/uL
same,BASOPHIL,[5],0%
same,EOSINOPHIL,[5],0%
same,ERYTHROCYTE COUNT,[5],5.21 x10E6/uL
same,HEMATOCRIT,[5],30.4%
same,HEMOGLOBIN,[5],11.63 G/DL
same,LEUKOCYTE COUNT,[5],10.83 x10E3/uL
same,LYMPHOCYTE,[5],71%
same,MEAN CORPUSCULAR HEMOGLOBIN,[5],22.4 pg
same,MEAN CORPUSCULAR HEMOGLOBIN CONCENTRATION,[5],38.3 G/DL
same,MEAN CORPUSCULAR VOLUME,[5],58.4 fL
same,MONOCYTE,[5],0.67%
same,NEUTROPHIL,[5],28.33%
same,NUCLEATED RED BLOOD CELLS,[5],0.33 /100WBC
same,PLATELET COUNT,[5],1382.67 x10E3/uL
same,ALANINE AMINOTRANSFERASE,[5],47.33 u/L
same,ALBUMIN,[5],3.33 G/DL
same,ALKALINE PHOSPHATASE,[5],343 u/L
same,ASPARTATE AMINOTRANSFERASE,[5],83.67 u/L
same,BLOOD UREA NITROGEN,[5],15 mg/dL
same,CARBON DIOXIDE,[5],28 mmol/L
same,CHLORIDE,[5],104.33 MEQ/L
same,CHOLESTEROL,[5],78.33 mg/dL
same,CREATINE PHOSPHOKINASE,[5],168.33 u/L
same,CREATININE,[5],0.18 mg/dL
same,GLUCOSE,[5],174 mg/dL
same,LACTATE DEHYDROGENASE,[5],96.33 u/L
same,LIPASE,[5],8.33 u/L
same,PHOSPHORUS,[5],13.63 mg/dL
same,POTASSIUM,[5],6.41 MEQ/L
same,SODIUM,[5],147.13 MEQ/L
same,TOTAL BILIRUBIN,[5],0.1 mg/dL
same,TOTAL PROTEIN,[5],5.87 G/DL
same,URIC ACID,[5],2.1 mg/dL
